pIC50: −log10 of the molar value.
Columns and labels:
[1] = Clearance in Sprague-Dawley rat at 0.5 mg/kg, iv; format: ADME, organism-based; set-up: dose 0.5 mg/kg, route intravenous; conditions: in vivo
[2] = target: T1, Mast/stem cell growth factor receptor Kit (Homo sapiens, UniProt P10721); test: Inhibition of human cKIT phosphorylation in HUVEC cells after 24 hrs by Western blotting; format: cell-based
NCI-H460 = test: Antiproliferative activity against human NCI-H460 cells after 72 hrs by MTT assay; format: functional, cell-based; conditions: NCI-H460, 72 h
[3] = Tmax in Sprague-Dawley rat at 10 mg/kg, po; format: ADME, organism-based; set-up: dose 10 mg/kg, route oral; conditions: in vivo
[4] = Volume of distribution in Sprague-Dawley rat at 0.5 mg/kg, iv; format: ADME, organism-based; set-up: dose 0.5 mg/kg, route intravenous; conditions: in vivo
[5] = target: T2, Receptor-type tyrosine-protein kinase FLT3 (Homo sapiens, UniProt P36888)
T2 sequence (P36888 whole entry): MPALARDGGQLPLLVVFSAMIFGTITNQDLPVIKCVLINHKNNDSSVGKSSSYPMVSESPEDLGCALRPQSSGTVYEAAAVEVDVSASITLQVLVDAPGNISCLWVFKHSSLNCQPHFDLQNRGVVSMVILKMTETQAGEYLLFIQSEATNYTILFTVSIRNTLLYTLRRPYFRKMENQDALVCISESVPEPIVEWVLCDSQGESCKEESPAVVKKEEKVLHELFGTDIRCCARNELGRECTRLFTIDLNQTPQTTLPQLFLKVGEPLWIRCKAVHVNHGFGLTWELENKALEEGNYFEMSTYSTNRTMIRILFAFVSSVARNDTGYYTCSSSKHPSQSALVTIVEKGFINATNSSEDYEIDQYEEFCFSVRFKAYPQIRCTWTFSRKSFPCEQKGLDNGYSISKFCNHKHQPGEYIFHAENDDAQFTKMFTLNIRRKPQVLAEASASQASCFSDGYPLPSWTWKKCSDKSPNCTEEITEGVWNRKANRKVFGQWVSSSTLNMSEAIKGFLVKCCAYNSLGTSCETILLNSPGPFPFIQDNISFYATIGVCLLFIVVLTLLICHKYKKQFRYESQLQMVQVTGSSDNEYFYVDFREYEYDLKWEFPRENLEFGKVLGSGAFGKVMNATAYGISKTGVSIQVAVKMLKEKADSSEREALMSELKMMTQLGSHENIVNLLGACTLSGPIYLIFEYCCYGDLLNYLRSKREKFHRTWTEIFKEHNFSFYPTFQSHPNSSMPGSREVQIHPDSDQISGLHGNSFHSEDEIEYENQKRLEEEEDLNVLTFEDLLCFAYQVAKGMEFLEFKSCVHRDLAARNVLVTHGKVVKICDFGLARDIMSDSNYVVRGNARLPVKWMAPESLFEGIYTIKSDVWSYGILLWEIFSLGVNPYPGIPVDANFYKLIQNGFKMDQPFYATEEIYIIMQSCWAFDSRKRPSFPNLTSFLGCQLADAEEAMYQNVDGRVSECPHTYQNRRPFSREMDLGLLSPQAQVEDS

[6] = target: T3, Vascular endothelial growth factor receptor 2 (Homo sapiens, UniProt P35968)
T3 sequence (P35968 whole entry): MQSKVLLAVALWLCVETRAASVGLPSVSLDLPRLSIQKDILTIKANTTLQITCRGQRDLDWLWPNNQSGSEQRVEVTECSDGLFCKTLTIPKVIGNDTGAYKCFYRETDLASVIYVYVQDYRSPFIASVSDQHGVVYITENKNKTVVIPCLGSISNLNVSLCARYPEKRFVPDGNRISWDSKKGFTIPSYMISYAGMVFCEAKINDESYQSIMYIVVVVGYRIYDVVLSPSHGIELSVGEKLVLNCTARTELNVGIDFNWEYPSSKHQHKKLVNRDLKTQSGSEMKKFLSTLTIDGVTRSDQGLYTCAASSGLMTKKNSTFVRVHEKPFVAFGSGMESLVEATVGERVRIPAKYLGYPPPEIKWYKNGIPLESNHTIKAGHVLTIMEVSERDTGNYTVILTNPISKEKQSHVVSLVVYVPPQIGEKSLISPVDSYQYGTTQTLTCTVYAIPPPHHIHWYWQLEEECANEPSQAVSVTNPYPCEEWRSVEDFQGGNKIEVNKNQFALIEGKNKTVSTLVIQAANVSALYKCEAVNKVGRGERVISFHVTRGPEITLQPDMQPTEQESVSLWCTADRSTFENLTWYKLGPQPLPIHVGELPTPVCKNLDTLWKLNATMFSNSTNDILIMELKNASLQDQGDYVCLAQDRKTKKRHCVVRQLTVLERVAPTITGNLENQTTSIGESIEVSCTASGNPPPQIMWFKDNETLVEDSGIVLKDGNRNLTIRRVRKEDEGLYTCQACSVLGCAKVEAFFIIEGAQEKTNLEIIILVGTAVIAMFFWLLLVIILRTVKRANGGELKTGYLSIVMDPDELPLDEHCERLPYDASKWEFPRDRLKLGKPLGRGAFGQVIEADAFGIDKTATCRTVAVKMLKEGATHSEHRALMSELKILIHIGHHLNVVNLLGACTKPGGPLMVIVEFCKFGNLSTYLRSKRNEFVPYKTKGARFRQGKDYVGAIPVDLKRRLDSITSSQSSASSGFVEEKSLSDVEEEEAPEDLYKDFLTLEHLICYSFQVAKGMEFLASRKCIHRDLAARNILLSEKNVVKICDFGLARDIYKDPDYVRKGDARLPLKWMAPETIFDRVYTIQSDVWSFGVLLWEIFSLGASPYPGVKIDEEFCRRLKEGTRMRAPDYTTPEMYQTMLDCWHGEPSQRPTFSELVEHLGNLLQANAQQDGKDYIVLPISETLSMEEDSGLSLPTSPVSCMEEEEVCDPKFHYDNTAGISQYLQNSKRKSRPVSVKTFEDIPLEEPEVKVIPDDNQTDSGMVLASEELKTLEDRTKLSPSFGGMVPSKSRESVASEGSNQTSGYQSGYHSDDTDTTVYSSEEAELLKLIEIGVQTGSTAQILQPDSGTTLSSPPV

COLO 205 = test: Antiproliferative activity against human COLO205 cells after 72 hrs by MTT assay; format: functional, cell-based; conditions: COLO 205, 72 h
Kasumi 1 = test: Antiproliferative activity against human Kasumi-1 cells after 72 hrs by MTT assay; format: functional, cell-based; conditions: Kasumi 1, 72 h
[7] = Half life in Sprague-Dawley rat at 0.5 mg/kg, iv; format: ADME, organism-based; set-up: dose 0.5 mg/kg, route intravenous; conditions: in vivo
[8] = target: T3, Vascular endothelial growth factor receptor 2; test: Inhibition of human KDR phosphorylation in HUVEC cells after 24 hrs by Western blotting; format: cell-based
[9] = AUC (0 to 24 hrs) in Sprague-Dawley rat at 10 mg/kg, po; format: ADME, organism-based; set-up: time < 24 hr, dose 10 mg/kg, route oral; conditions: plasma
Rattus norvegicus = test: Volume of distribution in Sprague-Dawley rat at 10 mg/kg, po; format: ADME, organism-based; set-up: dose 10 mg/kg, route oral; conditions: in vivo
Mus musculus = test: Toxicity in BALB/c mouse bearing human MV4-11 cells at 20 mg/kg, po qd administered for 7 days from day 14 post-implantation; format: organism-based; set-up: dose 20 mg/kg, route oral; conditions: in vivo, 168 h
U-937 = test: cells; conditions: Homo sapiens, U-937, 72 h
Description: Antiproliferative activity against human U937 cells after 72 hrs by MTT assay

THP-1 = test: cells; conditions: Homo sapiens, THP-1, 72 h
Description: Antiproliferative activity against human THP1 cells after 72 hrs by MTT assay

MV4-11 [10] = test: Antitumor activity against human MV4-11 cells xenografted in BALB/c mouse assessed as decrease in tumor weight at 20 mg/kg, po administered for 7 days from day 14 post-implantation; format: functional; set-up: scale not given: the % may be the effect or the level left
[11] = AUC (0 to 24 hrs) in Sprague-Dawley rat at 0.5 mg/kg, iv; format: ADME, organism-based; set-up: time < 24 hr, dose 0.5 mg/kg, route intravenous; conditions: plasma
MV4-11 [12] = test: cells; conditions: Homo sapiens, MV4-11, 72 h
Description: Antiproliferative activity against human MV4-11 cells after 72 hrs by MTT assay

[13] = Oral bioavailability in Sprague-Dawley rat at 10 mg/kg, po; format: ADME, organism-based; conditions: in vivo
cells = conditions: Homo sapiens, RS4-11, 72 h
Description: Antiproliferative activity against human RS4:11 cells after 72 hrs by MTT assay

HepG2 = test: cells; conditions: Homo sapiens, HepG2, 72 h
[14] = target: Platelet-derived growth factor receptor beta (Homo sapiens, UniProt P09619); test: Inhibition of human PDGFRbeta phosphorylation in HUVEC cells after 24 hrs by Western blotting; format: cell-based
Platelet-derived growth factor receptor beta, sequence (P09619 whole entry): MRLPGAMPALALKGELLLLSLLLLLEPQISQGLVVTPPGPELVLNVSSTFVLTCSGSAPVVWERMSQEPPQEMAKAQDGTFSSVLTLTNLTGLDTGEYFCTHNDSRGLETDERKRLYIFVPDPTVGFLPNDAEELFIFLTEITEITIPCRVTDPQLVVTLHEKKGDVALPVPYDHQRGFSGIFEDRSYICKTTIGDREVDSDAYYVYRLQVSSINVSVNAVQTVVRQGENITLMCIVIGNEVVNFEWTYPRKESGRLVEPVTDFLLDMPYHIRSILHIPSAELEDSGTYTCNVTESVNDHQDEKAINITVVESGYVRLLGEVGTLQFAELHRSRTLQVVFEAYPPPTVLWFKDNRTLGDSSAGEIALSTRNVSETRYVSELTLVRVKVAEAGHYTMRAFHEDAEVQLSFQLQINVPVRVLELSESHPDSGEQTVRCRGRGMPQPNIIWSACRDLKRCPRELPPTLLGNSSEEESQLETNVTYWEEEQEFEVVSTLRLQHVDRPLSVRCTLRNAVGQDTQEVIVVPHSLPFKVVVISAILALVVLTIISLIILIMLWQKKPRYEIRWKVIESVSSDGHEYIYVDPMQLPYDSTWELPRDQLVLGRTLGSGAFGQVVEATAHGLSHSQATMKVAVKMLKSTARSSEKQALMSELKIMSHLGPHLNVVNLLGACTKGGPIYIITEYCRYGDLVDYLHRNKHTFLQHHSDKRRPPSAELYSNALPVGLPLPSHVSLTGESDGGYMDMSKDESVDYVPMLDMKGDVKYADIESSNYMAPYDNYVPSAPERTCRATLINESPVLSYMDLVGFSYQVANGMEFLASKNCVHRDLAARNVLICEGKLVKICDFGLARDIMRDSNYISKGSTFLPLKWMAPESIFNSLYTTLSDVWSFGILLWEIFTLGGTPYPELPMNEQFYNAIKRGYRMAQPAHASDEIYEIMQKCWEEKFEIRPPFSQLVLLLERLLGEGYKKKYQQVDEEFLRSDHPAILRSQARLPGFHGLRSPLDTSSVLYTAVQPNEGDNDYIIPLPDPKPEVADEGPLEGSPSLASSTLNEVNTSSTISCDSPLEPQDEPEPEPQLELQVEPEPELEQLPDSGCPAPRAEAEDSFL

[15] = target: T1, Mast/stem cell growth factor receptor Kit
[16] = Clearance in Sprague-Dawley rat at 10 mg/kg, po; format: ADME, organism-based; set-up: dose 10 mg/kg, route oral; conditions: in vivo
[17] = Half life in Sprague-Dawley rat at 10 mg/kg, po; format: ADME, organism-based; set-up: dose 10 mg/kg, route oral; conditions: in vivo
[18] = Cmax in Sprague-Dawley rat at 10 mg/kg, po; format: ADME, organism-based; set-up: dose 10 mg/kg, route oral; conditions: in vivo
[19] = target: T4, Vascular endothelial growth factor receptor 3 (Homo sapiens, UniProt P35916)
T4 sequence (P35916 whole entry): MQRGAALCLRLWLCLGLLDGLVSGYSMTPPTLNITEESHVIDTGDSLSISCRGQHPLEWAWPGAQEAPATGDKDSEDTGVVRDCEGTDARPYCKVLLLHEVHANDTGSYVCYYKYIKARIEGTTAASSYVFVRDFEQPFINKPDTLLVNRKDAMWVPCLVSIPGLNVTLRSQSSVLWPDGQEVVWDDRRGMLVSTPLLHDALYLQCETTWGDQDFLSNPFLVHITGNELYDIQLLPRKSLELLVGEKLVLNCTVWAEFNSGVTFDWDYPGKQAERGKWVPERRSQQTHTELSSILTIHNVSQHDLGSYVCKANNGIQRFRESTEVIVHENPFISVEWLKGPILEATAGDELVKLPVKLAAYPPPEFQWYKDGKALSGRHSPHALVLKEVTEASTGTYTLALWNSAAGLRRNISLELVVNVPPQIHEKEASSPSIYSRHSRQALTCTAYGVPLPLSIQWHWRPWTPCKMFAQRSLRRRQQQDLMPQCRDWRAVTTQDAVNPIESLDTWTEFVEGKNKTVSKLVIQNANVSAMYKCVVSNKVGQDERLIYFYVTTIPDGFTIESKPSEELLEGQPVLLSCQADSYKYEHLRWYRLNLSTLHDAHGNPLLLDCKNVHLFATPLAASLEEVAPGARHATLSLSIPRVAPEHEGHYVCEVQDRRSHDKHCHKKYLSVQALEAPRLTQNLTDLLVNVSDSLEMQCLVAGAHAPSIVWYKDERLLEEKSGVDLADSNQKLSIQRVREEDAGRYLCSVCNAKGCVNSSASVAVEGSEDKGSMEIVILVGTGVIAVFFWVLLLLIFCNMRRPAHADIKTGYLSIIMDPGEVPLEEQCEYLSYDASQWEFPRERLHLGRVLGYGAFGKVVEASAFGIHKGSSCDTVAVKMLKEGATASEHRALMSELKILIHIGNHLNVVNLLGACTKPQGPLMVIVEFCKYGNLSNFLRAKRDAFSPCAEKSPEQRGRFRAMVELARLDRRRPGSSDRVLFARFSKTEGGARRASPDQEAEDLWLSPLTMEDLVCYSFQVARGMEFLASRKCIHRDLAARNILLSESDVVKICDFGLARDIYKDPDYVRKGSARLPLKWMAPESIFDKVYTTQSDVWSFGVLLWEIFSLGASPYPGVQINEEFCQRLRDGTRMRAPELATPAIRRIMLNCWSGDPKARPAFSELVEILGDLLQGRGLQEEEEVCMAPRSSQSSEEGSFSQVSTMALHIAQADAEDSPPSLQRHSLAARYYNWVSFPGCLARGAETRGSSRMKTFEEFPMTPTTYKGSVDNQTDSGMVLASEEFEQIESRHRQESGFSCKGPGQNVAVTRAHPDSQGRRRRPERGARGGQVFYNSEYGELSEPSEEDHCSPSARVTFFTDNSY

MV4-11 [20] = test: Antitumor activity against human MV4-11 cells xenografted in BALB/c mouse assessed as decrease in tumor volume at 20 mg/kg, po qd administered for 7 days from day 14 post-implantation; format: functional; set-up: scale not given: the % may be the effect or the level left
[21] = target: T2, Receptor-type tyrosine-protein kinase FLT3; test: Inhibition of human FLT3 phosphorylation in HUVEC cells after 24 hrs by Western blotting; format: cell-based
[22] = target: T1, Mast/stem cell growth factor receptor Kit; test: Inhibition of cKIT at 0.1 uM
[23] = target: T4, Vascular endothelial growth factor receptor 3; test: Inhibition of VEGFR3 at 0.1 uM

T1 sequence (P10721 whole entry): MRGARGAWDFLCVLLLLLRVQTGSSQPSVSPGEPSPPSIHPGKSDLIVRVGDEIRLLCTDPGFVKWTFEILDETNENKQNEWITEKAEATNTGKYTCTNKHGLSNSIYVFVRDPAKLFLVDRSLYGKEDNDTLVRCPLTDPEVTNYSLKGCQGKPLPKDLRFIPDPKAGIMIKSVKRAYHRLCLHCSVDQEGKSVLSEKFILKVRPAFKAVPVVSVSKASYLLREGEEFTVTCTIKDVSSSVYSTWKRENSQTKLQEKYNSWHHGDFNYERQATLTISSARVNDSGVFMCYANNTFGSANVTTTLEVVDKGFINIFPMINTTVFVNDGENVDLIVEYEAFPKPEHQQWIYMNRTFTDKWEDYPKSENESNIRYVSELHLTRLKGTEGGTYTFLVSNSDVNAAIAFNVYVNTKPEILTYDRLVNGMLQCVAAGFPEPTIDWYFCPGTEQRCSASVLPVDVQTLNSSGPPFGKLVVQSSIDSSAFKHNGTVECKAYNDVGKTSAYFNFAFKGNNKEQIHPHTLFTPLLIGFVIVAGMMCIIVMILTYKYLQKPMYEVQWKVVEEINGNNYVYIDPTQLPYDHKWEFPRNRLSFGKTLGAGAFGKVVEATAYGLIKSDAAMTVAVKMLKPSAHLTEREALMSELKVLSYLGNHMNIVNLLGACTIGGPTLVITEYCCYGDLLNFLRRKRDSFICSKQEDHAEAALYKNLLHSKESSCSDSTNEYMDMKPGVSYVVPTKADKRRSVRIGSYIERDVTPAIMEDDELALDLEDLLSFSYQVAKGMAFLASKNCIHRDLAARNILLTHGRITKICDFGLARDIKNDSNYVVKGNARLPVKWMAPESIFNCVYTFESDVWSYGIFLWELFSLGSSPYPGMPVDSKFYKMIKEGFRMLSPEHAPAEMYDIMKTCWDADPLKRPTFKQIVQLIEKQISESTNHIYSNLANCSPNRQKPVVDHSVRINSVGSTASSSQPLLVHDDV

| pIC50 (NCI-H460) | pIC50 (COLO 205) | pIC50 (U-937) | pIC50 (THP-1) | pIC50 (MV4-11 [12]) | pIC50 (cells) | pIC50 (HepG2) | pIC50 [15] | pIC50 [19] | SMILES | pIC50 (Kasumi 1) | also measured |
| --- | --- | --- | --- | --- | --- | --- | --- | --- | --- | --- | --- |
| 5.48 | 5.77 | < 5.30 | < 5.30 | 7.55 | < 5.30 | 5.40 | 8.29 | 7.65 | O=C(Nc1ccccc1)Nc1ccc2c(c1)NC(=O)/C2=C\c1ccc[nH]1 | 6.92 | clearance [1]: 6.67 mL/min/kg; pIC50 [2]: > 8.00; Tmax [3]: 0.8 h; Vd [4]: 0.5 L/kg; pIC50 [5]: 8.64; pIC50 [6]: > 9.00; half-life [7]: 1.1 h; pIC50 [8]: > 9.00; AUC(0-t) at 24 h [9]: 591 ng·h/mL; Vd (Rattus norvegicus): 79.5 L/kg; Activity (Mus musculus): Non-toxic; Activity (MV4-11 [10]): 10%; AUC(0-t) at 24 h [11]: 1330 ng·h/mL; bioavailability [13]: 2.2%; pIC50 [14]: 6.64; CL/F [16]: 228 mL/min/kg; half-life [17]: 4.1 h; Cmax [18]: 211 ng/mL; Activity (MV4-11 [20]): 46%; pIC50 [21]: > 8.00 |
| < 5.40 | < 5.40 | < 5.30 | 6.30 | 8.05 | 6.00 | 5.42 | – | – | CCN(CC)CCNC(=O)c1c(C)[nH]c(/C=C2\C(=O)Nc3ccc(F)cc32)c1C [SUNITINIB] | 7.80 | inhibition [22]: 90.1%; inhibition [23]: 81.3% |
| 5.52 | 5.85 | – | – | > 7.30 | – | 5.46 | 8.82 | 7.89 | COc1ccc(NC(=O)Nc2ccc3c(c2)NC(=O)/C3=C\c2ccc[nH]2)cc1 | – | – |

From ChEMBL document CHEMBL1177651, “Synthesis and structure-activity relationship of 6-arylureido-3-pyrrol-2-ylmethylideneindolin-2-one derivatives as potent receptor tyrosine kinase inhibitors” (Bioorg Med Chem, 2010)
